Experimental data from patent US8617614B2, “Sustained release preparation for tissue regeneration therapy” (Ono Pharmaceutical Co., Ltd., priority 2006, dated 2013).

Key:
EGF = EGF production promoting effect, angiogenesis kit culture, ELISA; assay type: cell-based, human; conditions: 100 nmol/L
Description: An angiogenesis kit (Kurabo Industries Ltd.) composed of normal human umbilical vein endothelial cells and normal human skin fibroblasts was procured and used.
Using a carbon dioxide incubator (BNA-121D) and using Angiogenesis Culture 2 provided with the angiogenesis kit as the liquid culture, culturing was carried out in a wet environment at 37° C. with 5% carbon dioxide/95% air.
Immediately after the kit arrived, the cells were cultured for 3 hours, following which the liquid culture was replaced and culturing was continued. Three days after the start of culturing, the liquid culture was again replaced. Six days after the start of culturing, treatment with the present drug was carried out by replacing the liquid culture. The treatment concentration was set to 100 nmol/L in each case. DMSO treatment was carried out as a negative control. Six, 24, 48 and 72 hours after treatment with the present drug, the culture supernatant was collected and furnished for measurement of the growth factors. The measured growth factors were EGF and SDF-1.
The culture supernatant was measured with the following ELISA kits.
Human EGF Immunoassay (R&D Systems Inc., DEG00)

[1] = system: STZ induced diabetes model; assay: Nephropathy ameliorating action: 24 h urinary excretion, STZ induced diabetes model; assay type: in vivo; conditions: urine, week 12; STZ rat; Test Group 3: 3 mg/kg oral twice daily
Description: Female Sprague-Dawley rats (8- to 11-week-old; Japan SLC, Inc.) were intraperitoneally administered 40 mg/kg of a citrate buffer (pH, approx. 4.5) of streptozotocin (STZ; Sigma). A normal control group was intraperitoneally given only the citrate buffer. Administration was carried out in accordance with the intended route of administration for clinical use. In Test Group 3, forced administration was carried out orally using a disposable syringe barrel and a rat stomach probe. In Test Group 4, intramuscular administration was carried out uniformly at four places within the muscle along the sciatic nerve in the femoral portion of the left leg. For subcutaneous administration in test Group 5, the animals were ether anesthetized, and subcutaneous administration was carried out in the dorsal region using a disposable syringe barrel and a disposable 25 G syringe needle. The volume of solution administered was computed based on the latest body weight. In week 12 from the start of test substance administration, the rats were transferred to a metabolic cage, given water ad libitum, and the urine was collected for 24 hours. […] Using the 7170 Clinical Analyzer (Hitachi, Ltd.), the total urinary protein (pyrogallol red method), creatinine (creatinase/F-DAOS method) and urine sugar were measured.

[2] = system: STZ induced diabetes model; assay: Time course of blood sugar level, STZ induced diabetes model; assay type: in vivo; conditions: STZ rat, Test Group 3: 3 mg/kg oral twice daily
Description: Female Sprague-Dawley rats (8- to 11-week-old; Japan SLC, Inc.) were intraperitoneally administered 40 mg/kg of a citrate buffer (pH, approx. 4.5) of streptozotocin (STZ; Sigma). A normal control group was intraperitoneally given only the citrate buffer. Two weeks after STZ administration, the blood sugar, nerve conduction velocity and body weight were measured, the animals were divided into groups uniform for these properties, and administration of the test substance was begun. To determine the change over time in blood sugar, the blood sugar level was measured 4, 8 and 12 weeks following the start of test solution administration (on the day prior to nerve conduction velocity measurement). The blood sugar level of blood drawn from the caudal vein was measured using a blood sugar analyzer (Antisense II; Bayer-Sankyo). Following measurement of the blood sugar 12 weeks later, the animals were deprived of food for at least 16 hours and the fasting blood sugar and insulin were measured. In addition, a 2 g glucose tolerance test was carried out in which blood was similarly drawn 30, 60 and 120 minutes after sugar loading, and the blood sugar and insulin values were measured. In Groups 2 to 5, the feeding blood sugar level two weeks after STZ administration was measured. Of rats with blood sugar levels above 300 mg/dL, severely diabetic rats were excluded therefrom, and the remaining rats were used as diabetes model animals. Groups were formed in such a way as to make the respective groups uniform with respect to nerve conduction velocity, blood sugar level and body weight. Administration was carried out in accordance with the intended route of administration for clinical use. In Test Group 3, forced administration was carried out orally using a disposable syringe barrel and a rat stomach probe. In Test Group 4, intramuscular administration was carried out uniformly at four places within the muscle along the sciatic nerve in the femoral portion of the left leg. For subcutaneous administration in test Group 5, the animals were ether anesthetized, and subcutaneous administration was carried out in the dorsal region using a disposable syringe barrel and a disposable 25 G syringe needle. The volume of solution administered was computed based on the latest body weight. The amount of microspheres administered indicates the amount of the present drug included.

Compound: O=C(O)COc1cccc2c1CCC=C2CCO/N=C(\c1ccccc1)c1cccnc1 [present drug, ({5-[2-({[(1E)-phenyl(pyridin-3-yl)methylene]amino}oxy)ethyl]-7,8-dihydronaphthalen-1-yl}oxy)acetic acid]
- EGF relative to the solvent control group (EGF; 72 hours after treatment): significantly increased
- EGF, Drug group (EGF; culture supernatant 72 hours after treatment): 4995 ± 442 pg/mL
- Total excretion (mg/24 hrs) Creatinine [1]: 116.76 ± 58.15 mg/24 hrs
- Total excretion (mg/24 hrs) Total protein [1]: 245.7 ± 231.9 mg/24 hrs
- Blood sugar (mg/dL) 0 weeks [2]: 567 ± 73 mg/dL
- Blood sugar (mg/dL) 4 weeks [2]: 555 ± 39 mg/dL
- Blood sugar (mg/dL) 8 weeks [2]: 600 ± 64 mg/dL
- Blood sugar (mg/dL) 12 weeks [2]: 510 ± 84 mg/dL
- blood sugar relative to Test Group 2 ([2]; at any of the times): A significant decline in blood sugar was not observed
